US20220333108A1, “COMBINATIONS OF SIRNAS WITH SIRNAS AGAINST SULF2 OR GPC3 FOR USE IN TREATING CANCER” (Sirnaomics, Inc., priority 2021, published 2022)

Test system: HepG2 cells
Test: Sulf2 silencing and Sorafenib in liver cancer cell model
Type: cell-based
Settings: Homo sapiens, Sorafenib exposure 72 h, read-out: IC50 in inhibiting tumor growth (Sorafenib)
Protocol: The effect of Sulf2 silencing in combination with Sorafenib in a liver cancer cell model (HepG2 cells) was studied. HepG2 cells incubated with various concentrations of SULF2_1 siRNA for 96 h, and Sorafenib (404) was added after 24 h to allow exposure for 72 h.

CNC(=O)c1cc(Oc2ccc(NC(=O)Nc3ccc(Cl)c(C(F)(F)F)c3)cc2)ccn1 [Sorafenib, sorafenib]
IC50: ~4 µM
